Assays:
concanavalin A [1] = target: T1, concanavalin A (Canavalia ensiformis, UniProt P02866); test: biochemical; type: binding; parameters: purchased Sigma, St. Louis, Mo; settings: for tension change on removal of divalent cations: buffer 1 exchanged for buffer 2 (without MnCl2 and CaCl2, both removed together)
Source text: (§1) Referring again to FIGS. 4 and 5: With a sample strip S mounted between the tips of the arms 148, 168, and reference solution L flowing in the well 210, mechanochemical testing of the sample S is ready to begin. Testing itself consists of two stages. In the first (preparative) stage, the strip is stretched until a maximum spring constant of the strip is obtained, and then is allowed to relax under isometric conditions until a constant level of isometric tension is reached. Isometric condition herein means keeping a fixed distance between tips of the arms 148 and 146. In the second stage relaxed strip is brought into contact with ligand solution and ligand-induced changes of the isometric tension and spring constant are measured.
At the testing stage, ligand-induced changes in F and κ are measured after an exchange in the flow cell of reference solution for that containing ligands. These parameters by themselves can be used to detect binding. However, they also allow estimation of a practically important parameter: ligand-induced strain, εL=(L-L1)/L0, where L1 is the length of the sample in the ligand solution when no force is applied. This can also be calculated by the formula
Ligands are added at the moment indicated by arrows in FIGS. 12, 14, and 16.
A strip of concanavalin A, (Sigma, St. Louis, Mo.) was prepared as described in Example 1 for hexokinase, mounted on the arms 148, 146 and extended by 1.2% in buffer 1 (10 mM HEPES buffer, pH=7.5, containing 0.1 M NaCl and 0.1 mM MnCl2 and CaCl2 each). After relaxation solutions with 0.25 mM, 1.25 mM, 5 mM and 10 mM of methyl-α-D-mannopyranoside (MP) on the same buffer 1 were introduced into the well 210 at the moments indicated by arrows in the FIG. 14.

yeast hexokinase = test: Mechanochemical test of yeast hexokinase film with glucose (isometric tension and compliance); type: binding
Source text: as §1
Spring constant is measured by applying small deformations to the strip with an amplitude AL much smaller than (L-L0). These deformations cause tension oscillations with amplitude of ΔF. […]
At the testing stage, ligand-induced changes in F and κ are measured after an exchange in the flow cell of reference solution for that containing ligands. […] This can also be calculated by the formula
A film of yeast hexokinase (Sigma Chemical Company, St. Louis, Mo.) was prepared. […] Changes in elasticity and isometric tension in the sample were measured at the moments indicated by arrows and changes in tension and in modulus resulted from such exchange of solutions were measured. […]

concanavalin A [2] = target: T1, concanavalin A; settings: as compared to MP; Biochem. Biophys. Acta, 165:398 (1968); cited from earlier work

SMILES: [Ca+2].[Cl-].[Cl-] [CaC12, CaCl2]
- tension change on removal of divalent cations (concanavalin A [1]): considerable decrease of tension

SMILES: O=C(O)CN(CCN(CC(=O)O)CC(=O)O)CC(=O)O [EDTA]
- tension change on addition of EDTA (concanavalin A [1]): reduces tension still more
- tension change on introduction of EDTA-free buffer 2 after EDTA (concanavalin A [1]): does not affect tension

SMILES: CO[C@H]1O[C@H](CO)[C@@H](O)[C@H](O)[C@@H]1O [MP, methyl-α-D-mannopyranoside]
- Kd (concanavalin A [1]): 300 µM
- tension change on ligand addition without divalent cations (concanavalin A [1]; 10 mM MP in buffer 2): reversible drop of tension by ΔF2, similar to the effect, ΔF1, in buffer 1
- isometric tension change on ligand addition (concanavalin A [1]; buffer 1, 0.25, 1.25, 5 and 10 mM MP): reduce progressively the isometric tension
- reversibility of MP-induced decrease in tension (concanavalin A [1]; return to buffer 1): completely reversible

SMILES: [Cl][Mn][Cl] [MnCl2]
- tension change on removal of divalent cations (concanavalin A [1]): considerable decrease of tension

SMILES: OC[C@H]1OC(O)[C@H](O)[C@@H](O)[C@@H]1O (stereo partly drawn) [glucose]
- inverse tension changes against inverse glucose concentration (yeast hexokinase; Lineweaver-Burk plot, FIG. 13): linear relationship
- changes in isometric tension and compliance (yeast hexokinase; hexokinase film strip, varying glucose concentration, 10 mM HEPES, pH=7.5, 0.1 NaCl, extended 2.8%): large but reversible changes
- ability of binding concanavalin A compared to MP (concanavalin A [2]): much lower ability of binding concanavalin A
- tension change on introduction of glucose (concanavalin A [1]; 5 mM glucose): very small tension changes
